The source of these data is patent publication US20240002393A1, “SUBSTITUTED BENZO[f][l ,2,4JTRIAZOL0[4,3-a][l ,4J[…] GABA A GAMMA! POSITIVE ALLOSTERIC MODULATORS” (Hoffmann-La Roche Inc., priority 2020, published 2024).

Test [1] addresses h-GABA-A α2β2γ1 (Homo sapiens (Human), UniProt P47869+Q8N1C3). Nature of the test: Two-electrode voltage clamp electrophysiology in Xenopus oocytes expressing GABAA receptors. The test is classed as cell-based. Particulars: for Efficacy (GABA)%: % modulation of GABA EC20 = 100*(Fold increase−1), compound at 30-fold Ki; for Fold increase h-GABA-A α2β2γ1 oocyte @ 30-fold Ki: GABA EC20, test compound at about 30-fold its Ki α2β2γ1, at least 3 oocytes. The procedure:
Xenopus laevis oocytes at maturation stages V-VI were used for the expression of cloned mRNA encoding GABAA receptor subunits. Oocytes ready for RNA micro-injection were bought from Ecocyte, Castrop-Rauxel, Germany and stored in modified Barth's medium (composition in mM: NaCl 88, KCl 1, NaHCO3 2.4, HEPES 10, MgSO4 0.82, CaNO3 0.33, CaCl2 0.33, pH=7.5) at 20° C. until the experiment.
Oocytes were plated in 96-well plates for microinjection using the Roboinject automated instrument (MultiChannelSystems, Reutlingen, Germany). Approximately 50 nL of an aqueous solution containing the RNA transcripts for the subunits of the desired GABAA receptor subtype was injected into each oocyte. […] Oocytes were kept in modified Barth's medium (composition in mM: NaCl 88, KCl 1, NaHCO3 […], HEPES 10, MgSO4 0.82, CaNO3 0.33, CaCl2 0.33, pH=7.5) at 20° C. until the experiment.
Electrophysiological experiments were performed using the Roboocyte instrument (MultiChannelSystems, Reutlingen, Germany) on days 3 to 5 after the micro-injection of mRNA. During the experiment the oocytes were constantly superfused by a solution containing (in mM) NaCl 90, KCl 1, HEPES 5, MgCl2 1 CaCl2 1 (pH 7.4). Oocytes were impaled by two glass microelectrodes (resistance: 0.5-0.8 MΩ) which were filled with a solution containing KCl 1M+K-acetate 1.5 M and voltage-clamped to −80 mV. The recordings were performed at room temperature using the Roboocyte two-electrode voltage clamp system (Multichannelsystem). After an initial equilibration period of 1.5 min GABA was added for 1.5 min at a concentration evoking approximately 20% of a maximal current response (EC20). After another rest interval of 2.5 min GABA was again added evoking a response of similar amplitude and shape. […] Current traces were recorded at a digitization rate of 10 Hz during and shortly before and after the GABA application.
Each compound and concentration was tested on at least 3 oocytes. Different oocytes were used for different compound concentrations.
For the analysis, the digitized current traces of the first and second GABA response were superimposed and, if necessary, rescaled to equal maximal amplitudes. The ratio between the two responses during the time interval of test compound application was calculated point by point. The extremum of the resulting “ratio trace” was taken as the efficacy (“Fold increase”) of the compound expressed as “% modulation of GABA EC20” (100*(Fold increase−1)).
(In two-electrode clamp one electrode senses voltage and the other passes current.)

The target of test [2] is human GABAA α5β2γ1 receptor (Homo sapiens (Human), UniProt P31644+Q8N1C3). Nature of the test: Radioligand binding assay, [3H]RO7239181 competition, γ1-containing GABAA subtypes. Particulars: HEK293F membranes, mean of two determinations. As for the experimental part: The affinity of compounds at GABAA γ1 subunit-containing receptors was measured by competition for [^3H]RO7239181 (67.3 Ci/mmol; Roche) binding to membranes from HEK293F cells (ThermoFisher R79007) expressing human (transiently transfected) receptors of composition α5β2γ1, α2β2γ1, α1β2γ1. For better protein expression of the α2 subunit-containing receptors, the 28 amino acid long signal peptide (Met1 to Ala28) of the human GABAA α2 subunit was substituted by the 31 amino acid long signal peptide (Met1 to Ser31) of human GABAA α5 subunit.
Harvested pellets from HEK293F cells expressing the different GABAA receptor subtypes were resuspended in Mannitol Buffer pH 7.2-7.4 (Mannitol 0.29M, Triethylamine 10 mM, Acetic acid 10 mM, EDTA 1 mM plus protease inhibitors (20 tablets Complete, Roche Diagnostics Cat. No. 05 056 489 001 per liter)), washed two times and then resuspended at 1:10 to 1:15 dilution in the same buffer. Cell disruption was performed by stirring the suspension in a Parr vessel #4637 at 435 psi for 15 minutes, and then the suspensions were centrifuged at 1000×g for 15 minutes at 4° C. (Beckman Avanti J-HC; rotor JS)-4.2). The supernatant (S1) was transferred in a 21 Schott flask and the pellet (P1) was resuspended with Mannitol Buffer up to 175 ml. The resuspended pellet was transferred into a 250 ml Corning centrifugal beaker and centrifuged at 1500×g for 10 minutes at 4° C. (Beckman Avanti J-HC; rotor JS)-4.2). The supernatant (S1) was then transferred in the 21 Schott flask and the pellet was discarded. The supernatants (S1) were centrifuged in 500 ml Beckman polypropylene centrifugal beaker at 15,000×g for 30 minutes at 4° C. (Beckman Avanti J-20 XP; rotor JLA-10.500). The pellet (P2) was resuspended with Mannitol Buffer 1:1 and frozen at −80° C. The supernatant (S2) was centrifuged in 100 ml Beckman polypropylene centrifugal tubes at 48000×g for 50 minutes at […] (Beckman Avanti J-20 XP; rotor JA-18). The supernatant (S3) was discarded and the pellet (P3) was resuspended with 1:1 Mannitol Buffer. The P2 and P3 protein concentration was determined with the BIORAD Standard assay method with bovine serum albumin as standard and measured on the NANO-Drop 1000. The membrane suspension was aliquots (500 μl per tube) and stored at −80° C. until required.
Membrane homogenates were resuspended and polytronised (Polytron PT1200E Kinematica AG) in Potassium Phosphate 10 mM, KCl 100 mM binding buffer at pH 7.4 to a final assay concentration determined with a previous experiment.
Radioligand binding assays were carried out in a volume of 200 µL (96-well plates) which contained 100 μL of cell membranes, [^3H]RO7239181 at a concentration of 1.5 nM (α5β2γ1) or 20-30 nM (α1β2γ1, 2β2γ1) and the test compound in the range of [0.3-10000]×10^−9 M. Nonspecific binding was defined by 10×10^−6 (α5β2γ1) and 30×10^−6 M RO7235136 and typically represented less than 5% (α5β2γ1) and less than 20% (α1β2γ1, α2β2γ1) of the total binding. Assays were incubated to equilibrium for 1 hour at 4° C. and then, membranes were filtered onto unifilter (96-well white microplate with bonded GF/C filters preincubated 20-50 minutes in 0.3% Polyethylenimine) with a Filtermate 196 harvester (Packard BioScience) and washed 4 times with cold Potassium Phosphate 10 mM pH 7.4, KCl 100 mM binding buffer. After drying, filter-retained radioactivity was detected by liquid scintillation counting. K, values were calculated using Excel-Fit (Microsoft) and are the means of two determinations.
Representative test results, obtained by the above described assay measuring binding affinity to HEK293 cells expressing human (h) receptors, are shown in the Table 1.

Molecules are shown by their SMILES.

On to `Cc1ccc2c(c1Cl)C(c1c(F)cccc1F)=N[C@@H](C)c1nnc(C)n1-2` [Example 97, (4S)-7-chloro-6-(2,6-difluorophenyl)-1,4,8-trimethyl-4H-[1,2,4]triazolo[4,3-a][1,4]benzodiazepine], for which, in test [1], the “Efficacy (GABA)%” value came out at 148% and the “Fold increase h-GABA-A α2β2γ1 oocyte @ 30-fold Ki” value came out at 2.48. The Ki in test [2] was 2.5 nM.

Turning to `C[C@@H]1N=C(c2c(F)cccc2F)c2c(ccc(Cl)c2Br)-n2c(-c3cnn(C)c3)nnc21` [Example 76, (4S)-7-bromo-8-chloro-6-(2,6-difluorophenyl)-4-methyl-1-(1-methylpyrazol-4-yl)-4H-[1,2,4]triazolo[4,3-a][1,4]benzodiazepine], in test [1], the “Efficacy (GABA)%” value is reported as 52% and the “Fold increase h-GABA-A α2β2γ1 oocyte @ 30-fold Ki” value amounted to 1.52. Moreover, in test [2], affinity was put at a Ki of 3.6 nM.

Turning to `C[C@@H]1N=C(c2ncccc2F)c2c(ccc(Cl)c2Cl)-n2c(C3CC3)nnc21` [Example 68, (4S)-7,8-dichloro-1-cyclopropyl-6-(3-fluoro-2-pyridyl)-4-methyl-4H-[1,2,4]triazolo[4,3-a][1,4]benzodiazepine], in test [1], the “Efficacy (GABA)%” value stood at 109% and the “Fold increase h-GABA-A α2β2γ1 oocyte @ 30-fold Ki” value amounted to 2.09. In test [2], this compound returned an inhibitory constant (Ki) of 7 nM.

As to `C[C@@H]1N=C(c2c(F)cccc2F)c2c(ccc(Br)c2Cl)-n2cnnc21` [Example 51, (4S)-8-bromo-7-chloro-6-(2,6-difluorophenyl)-4-methyl-4H-[1,2,4]triazolo[4,3-a][1,4]benzodiazepine], in test [1], the “Efficacy (GABA)%” value turned out to be 56% and the “Fold increase h-GABA-A α2β2γ1 oocyte @ 30-fold Ki” value worked out at 1.56. In test [2], the affinity, expressed as Ki, was 0.8 nM.

In the case of `Cc1nnc2n1-c1ccc(Br)c(Cl)c1C(c1c(F)cccc1F)=N[C@H]2C` [Example 75, (4S)-8-bromo-7-chloro-6-(2,6-difluorophenyl)-1,4-dimethyl-4H-[1,2,4]triazolo[4,3-a][1,4]benzodiazepine], in test [1], the “Efficacy (GABA)%” value stood at 57% and the “Fold increase h-GABA-A α2β2γ1 oocyte @ 30-fold Ki” value amounted to 1.57. For the same compound, the Ki in test [2] was 0.8 nM.

Consider `OC1N=C(c2ccccc2F)c2c(ccc(Br)c2Cl)-n2c(-c3cccnn3)nnc21` (stereo not drawn) [Example 35, 8-bromo-7-chloro-6-(2-fluorophenyl)-1-pyridazin-3-yl-4H-[1,2,4]triazolo[4,3-a][1,4]benzodiazepin-4-ol], for which, in test [1], the “Efficacy (GABA)%” value is on record as 108% and the “Fold increase h-GABA-A α2β2γ1 oocyte @ 30-fold Ki” value worked out at 2.08. For the same compound, in test [2], the Ki amounted to 8.4 nM.

`Cc1nnc2n1-c1ccc(Cl)c(Br)c1C(c1c(F)cccc1F)=N[C@H]2C` [Example 80, (4S)-7-bromo-8-chloro-6-(2,6-difluorophenyl)-1,4-dimethyl-4H-[1,2,4]triazolo[4,3-a][1,4]benzodiazepine]: in test [1], the “Efficacy (GABA)%” value worked out at 59% and the “Fold increase h-GABA-A α2β2γ1 oocyte @ 30-fold Ki” value came to 1.59. In test [2], this compound registered a Ki of 3 nM.

With `Cc1nccc(-c2nnc3n2-c2ccc(Cl)c(Cl)c2C(c2c(F)cccc2F)=N[C@H]3C)n1` [Example 95, (4S)-7,8-dichloro-6-(2,6-difluorophenyl)-4-methyl-1-(2-methylpyrimidin-4-yl)-4H-[1,2,4]triazolo[4,3-a][1,4]benzodiazepine], in test [1], the “Efficacy (GABA)%” value turned out to be 53% and the “Fold increase h-GABA-A α2β2γ1 oocyte @ 30-fold Ki” value turned out to be 1.53. Besides, the affinity in test [2], expressed as Ki, was 1.5 nM.

Turning to `Cc1cc(-c2nnc3n2-c2ccc(Cl)c(Cl)c2C(c2c(F)cccc2F)=N[C@H]3C)ncn1` [Example 94, (4S)-7,8-dichloro-6-(2,6-difluorophenyl)-4-methyl-1-(6-methylpyrimidin-4-yl)-4H-[1,2,4]triazolo[4,3-a][1,4]benzodiazepine], in test [1], the “Efficacy (GABA)%” value was 47% and the “Fold increase h-GABA-A α2β2γ1 oocyte @ 30-fold Ki” value is on record as 1.47. This compound had a Ki in test [2] of 2 nM.

In the case of `COC[C@@H]1N=C(c2c(F)cccc2F)c2c(ccc(C(F)(F)F)c2Cl)-n2c(C)nnc21` [Example 105, (4R)-7-chloro-6-(2,6-difluorophenyl)-4-(methoxymethyl)-1-methyl-8-(trifluoromethyl)-4H-[1,2,4]triazolo[4,3-a][1,4]benzodiazepine], in test [1], the “Efficacy (GABA)%” value is given as 75% and the “Fold increase h-GABA-A α2β2γ1 oocyte @ 30-fold Ki” value came to 1.75. The affinity in test [2] corresponds to a Ki of 20.1 nM.

Take `C[C@@H]1N=C(c2c(F)cccc2F)c2c(ccc(Cl)c2Br)-n2c(-c3ccn(C)n3)nnc21` [Example 81, (4S)-7-bromo-8-chloro-6-(2,6-difluorophenyl)-4-methyl-1-(1-methylpyrazol-3-yl)-4H-[1,2,4]triazolo[4,3-a][1,4]benzodiazepine]: in test [1], the “Efficacy (GABA)%” value is recorded as 46% and the “Fold increase h-GABA-A α2β2γ1 oocyte @ 30-fold Ki” value came out at 1.46. In addition, the affinity in test [2], expressed as Ki, was 4.3 nM.

Take `C[C@@H]1N=C(c2c(F)cccc2F)c2c(ccc(Cl)c2Br)-n2c1n[nH]c2=O` [Example 89, (4S)-7-bromo-8-chloro-6-(2,6-difluorophenyl)-4-methyl-2,4-dihydro-[1,2,4]triazolo[4,3-a][1,4]benzodiazepin-1-one]: in test [1], the “Efficacy (GABA)%” value was 88% and the “Fold increase h-GABA-A α2β2γ1 oocyte @ 30-fold Ki” value is reported as 1.88. The compound further yielded a Ki in test [2] of 4.3 nM.

In the case of `Cc1nnc2n1-c1ccc(C(F)F)c(Cl)c1C(c1c(F)cccc1F)=N[C@H]2C` [Example 99, (4S)-7-chloro-8-(difluoromethyl)-6-(2,6-difluorophenyl)-1,4-dimethyl-4H-[1,2,4]triazolo[4,3-a][1,4]benzodiazepine], in test [1], the “Efficacy (GABA)%” value stood at 135% and the “Fold increase h-GABA-A α2β2γ1 oocyte @ 30-fold Ki” value is given as 2.35. This compound also gave a Ki in test [2] of 3.2 nM.

In general, Ki refers to the dissociation constant of the complex between target and ligand, obtained from inhibition or displacement. A higher Ki goes with lower affinity.
